The source of these data is US7713969B2, “Compositions and methods for treatment of cancer” (ArQule, Inc., priority 2005, dated 2010).

The IC50 is the midpoint of a concentration-inhibition curve. The term melting point denotes the temperature of the solid-liquid transition.

In one series the test system is HCT-116. Nature of the series: Cell viability MTS assay. It is filed as cell-based, human. Conditions: Homo sapiens, HCT-116, 72 hours with compound. The procedure:
(§1) Cell viability was determined by measuring the activity of dehydrogenase enzymes in metabolically active cells using a tetrazolium compound, MTS. The assay was performed as described in Promega Technical Bulletin No. 169 (CellTiter 96 Aqueous Non-Radioactive Cell Proliferation Assay). Thirteen human cancer cell lines were assayed (see, e.g., Table 1). Cells were maintained at 37° C., 5% CO2. Adherent cells were maintained DMEM media (4.5 g/L glucose) supplemented with 15% heat-inactivated FBS, 10 mM L-glutamine, and 10 mM Hepes pH 7.5. Suspension cells were maintained in RPMI 1640 media, supplemented with 10% heat-inactivated FBS and 10 mM Hepes pH 7.5. Briefly, cells were seeded in 96-well plates as set forth in Table 1 and incubated for 16-24 hours. Candidate compounds were serially diluted in DMSO, further diluted in cell culture media, and then added to cells (final DMSO concentration of 0.33%). Cells were incubated in the presence of candidate compound for 72 hours. MTS stock solution (MTS 2 gm/L, PMS […] in PBS) was added to the cells (final concentration MTS […] and PMS 7.67 mg/L) and incubated for 4 hours. SDS was added to a final concentration of 1.4% and absorbance at 490 nm was measured within two hours using a platereader. The IC50 was defined as the concentration of compound that results in a 50% reduction in the number of viable cells as compwered to control wells treated with DMSO only (0.33%) and was calculated using non-linear regression analyswas. IC50 values were given in Table 2 for the compounds listed.
For orientation: Tetrazolium dyes change colour on reduction, which living cells bring about.

A further series deals with SKOV-3. Nature of the series: Cell viability MTS assay. It is filed as cell-based, human. The following applies: Homo sapiens, SK-OV-3, 72 hours with compound. Here is the method:
as §1

A further series has as its system SK-MEL-28. Nature of the series: Cell viability MTS assay. The format is cell-based, human. Conditions: Homo sapiens, SK-MEL-28, 72 hours with compound. Here is the method: as §1
Another series relates to A549. In words: Cell viability MTS assay. The format is cell-based, human. The following applies: Homo sapiens, A549, 72 hours with compound. Here is the method: as §1
The subject of another series is DU-145. Nature of the series: Cell viability MTS assay. The format is cell-based, human. Conditions: Homo sapiens, DU-145, 72 hours with compound. Here is the method: as §1
The next series concerns PC-3. Nature of the series: Cell viability MTS assay. It is filed as cell-based, human. Conditions: Homo sapiens, PC-3, 72 hours with compound. Here is the method: as §1
The next series has as its system HT29. In words: Cell viability MTS assay. It is filed as cell-based, human. Here is the method: as §1
In a further series the test system is K562. Nature of the series: Cell viability MTS assay. The format is cell-based, human. Conditions: Homo sapiens, K562, 72 hours with compound. Here is the method: as §1
Another series has as its system MDA-MB-231. Nature of the series: Cell viability MTS assay. The format is cell-based, human. The procedure: as §1
For a further series, the system named is MCF7. In words: Cell viability MTS assay. The following applies: Homo sapiens, MCF7, 72 hours with compound. It is filed as cell-based, human. The procedure:
as §1

The subject of a further series is NCI-H69. Nature of the series: Cell viability MTS assay. The format is cell-based, human. Here is the method:
as §1

For the next series, the system named is NCI-H446. Nature of the series: Cell viability MTS assay. It is filed as cell-based, human. Here is the method: as §1
In another series the test system is NCI-H82. In words: Cell viability MTS assay. The format is cell-based, human. The procedure: as §1
[1] abbreviates: Homo sapiens, HT-29, 72 hours with compound.
Setting [2] is: Homo sapiens, MDA-MB-231, 72 hours with compound.
Setting [3] is: Homo sapiens, NCI-H446, 72 hours with compound.
The mark [4] stands for this setting: Homo sapiens, NCI-H82, 72 hours with compound.

Turning to `COc1ccc(OC)c([C@H]2C(=O)NC(=O)[C@H]2c2cn3c4c(cccc24)CCC3)c1` (racemic) [Example 53, (±)-Cis-3-(5,6-dihydro-4H-pyrrolo[3,2,1-ij]quinolin-1yl)-4-(2,5-dimethoxyphenyl)-pyrrolidine-2,5-dione], the IC50 in the series with HCT-116 was greater than 100 µM; in the series on SKOV-3, 57.4 µM; in the series with SK-MEL-28, greater than 100 µM; with A549, greater than 100 µM; with DU-145, greater than 100 µM; in the series with PC-3 it was greater than 100 µM. Further, the IC50 is greater than 100 µM in the series on HT29 (setting [1]), 36.3 µM in the series with K562, greater than 100 µM in the series on MDA-MB-231 (setting [2]) and greater than 100 µM in the series with MCF7.
`COc1cccc(C2=C(c3cn4c5c(cccc35)CCC4)C(=O)NC2=O)c1` [Example 65, 3-(5,6-dihydro-4H-pyrrolo[3,2,1-ij]quinolin-1-yl)-4-(3-methoxyphenyl)-1H-pyrrole-2,5-dione] gave a melting point of 99 to 101 °C. Further, the IC50 in the series with HT29 (setting [1]) is 35 µM. Further, the IC50 with MDA-MB-231 (setting [2]) is 60.8 µM.
Taken in the same sequence, the figures for `O=C1NC(=O)C(c2cn3c4c(cccc24)CCC3)=C1c1ccc(OCc2ccccc2)cc1` [Example 66, 3-[4-(benzyloxy)phenyl]-4-(5,6-dihydro-4H-pyrrolo[3,2,1-ij]quinolin-1-yl)-1H-pyrrole-2,5-dione] were 262 to 265 °C, greater than 100 µM and greater than 100 µM.
On to `O=C1NC(=O)[C@@H](c2cn3c4c(cccc24)CCC3)[C@H]1c1c[nH]c2ccccc12` [3(R),4(S)-3-(5,6-dihydro-4H-pyrrolo[3,2,1-ij]quinolin-1-yl)-4(1H-indol-3-yl)pyrrolidine-2,5-dione], for which the IC50 with NCI-H69 (72 hours with compound) was determined as 1.85 µM; in the series with NCI-H446 (72 hours with compound), 1.27 µM; in the series with HT29 (72 hours with compound), 5.5 µM; with MDA-MB-231 (72 hours with compound), 3.69 µM; in the series with NCI-H82 (72 hours with compound) it was 1.49 µM.
In the case of `O=C1NC(=O)[C@@H](c2cn3c4c(cccc24)CCC3)[C@@H]1c1ccccc1Cl` (racemic) [Example 50, (±)-Trans-3-(5,6-dihydro-4H-pyrrolo[3,2,1-ij]quinolin-1yl)-4-(2-chlorophenyl)-pyrrolidine-2,5-dione], the IC50 was 5.41 µM in the series with NCI-H69 (Homo sapiens, NCI-H69, 72 hours with compound); 4.22 µM in the series on NCI-H446 (setting [3]); 8.51 µM in the series on HT29 (setting [1]); 4.56 µM with MDA-MB-231 (setting [2]); 4.65 µM in the series with NCI-H82 (setting [4]).
Turning to `Cn1cc([C@@H]2C(=O)NC(=O)[C@H]2c2cn3c4c(cccc24)CCC3)c2ccccc21` (racemic) [Example 51, (±)-Trans-3-(5,6-dihydro-4H-pyrrolo[3,2,1-ij]quinolin-1yl)-4-(N-methylindol-3-yl)pyrrolidine-2,5-dione], the figures for the IC50 with NCI-H446 (setting [3]), with MDA-MB-231 (setting [2]) and with NCI-H82 (setting [4]) were 65.7 µM, 67.3 µM and 37.7 µM, respectively.
As to `COc1cccc([C@@H]2C(=O)NC(=O)[C@H]2c2cn3c4c(cccc24)CCC3)c1` (racemic) [Example 68, (±)-Trans-3-(5,6-dihydro-4H-pyrrolo[3,2,1-ij]quinolin-1-yl)-4-(3-methoxyphenyl)pyrrolidine-2,5-dione], the melting point was 87 to 91 °C. Further, the IC50 in the series on HT29 (setting [1]) is 3.06 µM. Further, the IC50 in the series on MDA-MB-231 (setting [2]) turned out to be 14.7 µM.
On to `O=C1NC(=O)[C@@H](c2cn3c4c(cccc24)CCC3)[C@H]1c1cccc(Cl)c1` (racemic) [Example 55, (±)-Cis-3-(5,6-dihydro-4H-pyrrolo[3,2,1-ij]quinolin-1yl)-4-(3-chlorophenyl)-pyrrolidine-2,5-dione], for which the IC50 is 12.1 µM with HCT-116; 11.6 µM with SKOV-3; greater than 100 µM in the series with SK-MEL-28; 13.1 µM in the series with A549; 35.7 µM with DU-145; 12.9 µM in the series on PC-3. Besides, the IC50 with HT29 (setting [1]) was 13.1 µM; in the series with K562, 3.47 µM; with MDA-MB-231 (setting [2]), 15.5 µM; in the series on MCF7, greater than 100 µM.
As for `O=C1NC(=O)[C@@H](c2cn3c4c(cccc24)CCC3)[C@@H]1c1cccs1` (racemic) [Example 47, (±)-Trans-3-(5,6-dihydro-4H-pyrrolo[3,2,1-ij]quinolin-1yl)-4-(2-thiophen-2-yl)pyrrolidine-2,5-dione], the IC50 with NCI-H69 (72 hours with compound) worked out at 4.45 µM; with NCI-H446 (72 hours with compound), 9.82 µM; in the series on HT29 (72 hours with compound), 18.3 µM; with MDA-MB-231 (72 hours with compound), 19.9 µM; in the series with NCI-H82 (72 hours with compound), 7.25 µM.
As for `CN1C(=O)[C@H](c2cn(C)c3ccccc23)[C@H](c2cn3c4c(cccc24)CCC3)C1=O` (racemic) [Example 61, (±)-cis-3-(5,6-dihydro-4H-pyrrolo[3,2,1-ij]quinolin-1-yl)-4(1-methylindol-3-yl)-1-methylpyrrolidine-2,5-dione], the IC50 was 96.2 µM in the series with HCT-116; 37.6 µM with SKOV-3; greater than 100 µM with SK-MEL-28; 78.9 µM in the series on A549; greater than 100 µM with DU-145; greater than 100 µM with PC-3. In addition, the IC50 with HT29 (setting [1]) is greater than 100 µM; with K562, 18.7 µM; with MDA-MB-231 (setting [2]), greater than 100 µM; with MCF7, greater than 100 µM.
As to `O=C1NC(=O)C(c2cn3c4c(cccc24)CCC3)=C1c1ccccc1Br` [Example 21, 3-(5,6-Dihydro-4H-pyrrolo[3,2,1-ij]quinolin-1-yl)-4-(2-bromo-phenyl)-pyrrole-2,5-dione], the IC50 with HCT-116 is 5.44 µM; with SKOV-3, 30.2 µM; with SK-MEL-28, greater than 100 µM; in the series with A549 it was 28.6 µM; with DU-145, 21.8 µM; in the series on PC-3, 22.2 µM. Besides, the IC50 in the series with HT29 (setting [1]) was 56.8 µM; in the series with K562 it was 6.42 µM; in the series with MDA-MB-231 (setting [2]), 30 µM; in the series on MCF7, greater than 100 µM.
Molecule `O=C1NC(=O)[C@@H](c2cn3c4c(cccc24)CCC3)[C@@H]1c1ccc(O)cc1` (racemic) [Example 72, (±)-Trans-3-(5,6-dihydro-4H-pyrrolo[3,2,1-ij]quinolin-1-yl)-4-(4-hydroxyphenyl)pyrrolidine-2,5-dione] displayed a melting point of 105 to 107 °C. In addition, in the series on HT29 (setting [1]), the IC50 was greater than 100 µM. Further, the IC50 in the series on MDA-MB-231 (setting [2]) is greater than 100 µM.
In the case of `O=C1NC(=O)C(c2cn3c4c(cccc24)CCC3)=C1c1cccc2ccccc12` [Example 19, 3-(5,6-Dihydro-4H-pyrrolo[3,2,1-ij]quinolin-1-yl)-4-naphthalene-1-yl-pyrrole-2,5-dione], the IC50 was 26.2 µM in the series on HCT-116; 36.2 µM with SKOV-3; 39.6 µM in the series with SK-MEL-28; 41 µM with A549; greater than 100 µM in the series with DU-145; 96.2 µM in the series on PC-3. Also, the IC50 in the series with HT29 (setting [1]) is 46.8 µM; in the series with K562 it was 14 µM; with MDA-MB-231 (setting [2]), 70.5 µM; with MCF7 it was greater than 100 µM.
In turn, `O=C1NC(=O)[C@@H](c2cn3c4c(cccc24)CCC3)[C@@H]1c1cccc(O)c1` (racemic) [Example 69, (±)-Trans-3-(5,6-dihydro-4H-pyrrolo[3,2,1-ij]quinolin-1-yl)-4-(3-hydroxyphenyl)pyrrolidine-2,5-dione] showed a melting point of 108 to 110 °C. Moreover, in the series with HT29 (setting [1]), the IC50 turned out to be 55.4 µM. Also, in the series with MDA-MB-231 (setting [2]), the IC50 is 65.9 µM.
On to “(±)-Trans-3-(5,6-dihydro-4H-pyrrolo[3,2,1-ij]quinolin-1yl)-4-(N-methylindol-3-yl)pyrrolidine-2,5-dione [Example 51]”, for which the IC50 was 37.7 µM in the series with NCI-H69 (72 hours with compound) and 66.8 µM in the series with HT29 (72 hours with compound).
For the molecule `O=C1NC(=O)[C@@H](c2c[nH]c3ccccc23)[C@H]1c1cn2c3c(cccc13)CCC2` [3(S),4(R)-3-(5,6-dihydro-4H-pyrrolo[3,2,1-ij]quinolin-1-yl)-4(1H-indol-3-yl)pyrrolidine-2,5-dione], the IC50 worked out at 2.07 µM with NCI-H69 (72 hours with compound); 1.42 µM with NCI-H446 (72 hours with compound); 9.71 µM in the series with HT29 (72 hours with compound); 5.17 µM in the series on MDA-MB-231 (72 hours with compound); 1.77 µM in the series on NCI-H82 (72 hours with compound).
